Experimental data taken from paper PMC2615555 (Virology, 2008).
Peptide text beside a SMILES is read from it.

Key:
Assay in all cases: biochemical
Type in all cases: binding, BALB/c mouse
H2-K^d = H2-K^d (Mus musculus, UniProt P01902)
H2-D^d = H2-D^d (Mus musculus, UniProt P01900)
H2-L^d = H2-L^d (Mus musculus, UniProt P01897)
I-E^d = molecular target: T1, I-E^d (Mus musculus, UniProt P01904+P01915)
T1 sequence (P01904 26-255): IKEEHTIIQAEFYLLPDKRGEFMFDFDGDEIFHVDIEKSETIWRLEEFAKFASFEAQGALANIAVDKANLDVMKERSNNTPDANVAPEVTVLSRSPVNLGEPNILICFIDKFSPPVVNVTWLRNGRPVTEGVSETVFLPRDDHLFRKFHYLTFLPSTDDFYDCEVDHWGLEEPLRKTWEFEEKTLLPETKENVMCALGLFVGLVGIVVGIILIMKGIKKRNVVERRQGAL
T1 sequence (P01915 27-264 limits assumed): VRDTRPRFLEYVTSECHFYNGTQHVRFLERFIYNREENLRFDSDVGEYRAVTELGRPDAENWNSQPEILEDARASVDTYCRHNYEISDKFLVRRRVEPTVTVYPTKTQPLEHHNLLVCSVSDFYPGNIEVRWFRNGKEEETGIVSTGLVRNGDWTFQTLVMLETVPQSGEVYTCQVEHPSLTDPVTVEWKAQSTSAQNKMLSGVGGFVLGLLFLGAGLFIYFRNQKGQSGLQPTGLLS

I-A^d = molecular target: T2, I-A^d (Mus musculus, UniProt P01921+P04228)
T2 sequence (P04228 24-256): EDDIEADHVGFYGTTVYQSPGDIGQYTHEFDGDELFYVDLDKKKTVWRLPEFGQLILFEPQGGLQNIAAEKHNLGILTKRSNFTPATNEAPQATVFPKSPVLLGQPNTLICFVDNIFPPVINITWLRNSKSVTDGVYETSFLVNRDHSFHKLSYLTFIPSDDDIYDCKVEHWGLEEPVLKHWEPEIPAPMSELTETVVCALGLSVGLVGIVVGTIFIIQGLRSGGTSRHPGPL
T2 sequence (P01921 28-265): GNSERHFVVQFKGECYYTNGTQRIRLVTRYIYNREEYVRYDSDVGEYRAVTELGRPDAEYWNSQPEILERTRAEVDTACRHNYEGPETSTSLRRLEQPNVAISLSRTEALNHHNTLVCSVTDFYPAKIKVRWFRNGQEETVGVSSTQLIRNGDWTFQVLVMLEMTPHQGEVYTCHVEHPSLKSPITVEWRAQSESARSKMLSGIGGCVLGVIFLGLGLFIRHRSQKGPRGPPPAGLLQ

[1] = Binding Assay IC50, I-A^d (membrane 15mers)

Chain of H2-L^d (P01897 25-362): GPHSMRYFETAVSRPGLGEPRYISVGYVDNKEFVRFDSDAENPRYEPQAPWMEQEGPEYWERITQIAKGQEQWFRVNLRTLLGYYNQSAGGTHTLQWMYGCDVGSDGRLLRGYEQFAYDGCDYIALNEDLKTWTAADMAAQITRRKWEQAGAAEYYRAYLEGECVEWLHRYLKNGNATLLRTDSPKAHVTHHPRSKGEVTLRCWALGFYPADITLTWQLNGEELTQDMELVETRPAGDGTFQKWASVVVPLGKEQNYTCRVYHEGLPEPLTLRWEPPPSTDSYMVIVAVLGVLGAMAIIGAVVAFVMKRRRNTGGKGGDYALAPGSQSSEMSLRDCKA
Chain of H2-L^d (P61769 21-119 partner): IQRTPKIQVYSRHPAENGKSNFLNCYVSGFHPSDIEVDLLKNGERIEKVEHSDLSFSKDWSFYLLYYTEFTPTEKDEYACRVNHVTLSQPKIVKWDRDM
Chain of H2-D^d (P01900 25-365): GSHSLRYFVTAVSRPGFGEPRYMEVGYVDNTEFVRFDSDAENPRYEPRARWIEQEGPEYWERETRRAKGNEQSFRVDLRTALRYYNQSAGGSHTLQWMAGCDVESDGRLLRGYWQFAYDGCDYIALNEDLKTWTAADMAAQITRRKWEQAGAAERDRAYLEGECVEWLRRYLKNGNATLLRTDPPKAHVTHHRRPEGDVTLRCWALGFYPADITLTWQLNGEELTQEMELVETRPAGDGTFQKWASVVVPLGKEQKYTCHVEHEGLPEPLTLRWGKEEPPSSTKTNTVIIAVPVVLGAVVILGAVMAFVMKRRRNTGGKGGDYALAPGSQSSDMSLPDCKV
Chain of H2-D^d (P61769 21-119 partner): as the sequence (P61769 21-119 partner) above
Chain of H2-K^d (P01902 22-368): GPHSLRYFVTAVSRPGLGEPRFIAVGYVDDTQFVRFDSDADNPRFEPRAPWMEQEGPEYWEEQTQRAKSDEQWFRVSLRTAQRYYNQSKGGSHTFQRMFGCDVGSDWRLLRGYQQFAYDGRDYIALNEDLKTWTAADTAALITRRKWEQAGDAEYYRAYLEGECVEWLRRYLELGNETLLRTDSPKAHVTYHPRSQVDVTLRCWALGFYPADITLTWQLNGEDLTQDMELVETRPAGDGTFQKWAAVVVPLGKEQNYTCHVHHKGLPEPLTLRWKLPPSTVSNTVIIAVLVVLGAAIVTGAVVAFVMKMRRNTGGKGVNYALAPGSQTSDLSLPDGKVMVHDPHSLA
Chain of H2-K^d (P61769 21-119 partner): as the sequence (P61769 21-119 partner) above

SMILES	IC50 (H2-K^d)	IC50 (H2-D^d)	IC50 (H2-L^d)	IC50 (I-E^d)	IC50 (I-A^d; [1])	Binding Assay IC50, I-E^d (envelope 15mers) (I-E^d)	IC50 (I-A^d; Binding Assay IC50, I-A^d (envelope 15mers))
CC(C)C[C@H](NC(=O)[C@@H](NC(=O)[C@H](C)NC(=O)[C@H](CC(N)=O)NC(=O)[C@H](Cc1ccc(O)cc1)NC(=O)[C@@H](N)CS)C(C)C)C(=O)N[C@H](C(=O)N[C@@H](Cc1c[nH]cn1)C(=O)N[C@H](C(=O)O)C(C)C)[C@@H](C)O [E60–68] (H-CYNAVLTHV-OH)	0.001 µM	> 70 µM	> 70 µM				
CC(C)C[C@H](NC(=O)[C@@H](NC(=O)[C@H](C)NC(=O)[C@H](CC(N)=O)NC(=O)[C@@H](N)Cc1ccc(O)cc1)C(C)C)C(=O)N[C@H](C(=O)N[C@@H](Cc1c[nH]cn1)C(=O)N[C@H](C(=O)N[C@@H](CCCCN)C(=O)O)C(C)C)[C@@H](C)O [E61–69] (H-YNAVLTHVK-OH)	0.093 µM	> 70 µM	> 70 µM				
CC[C@H](C)[C@H](N)C(=O)N[C@H](C(=O)N[C@@H](C)C(=O)N[C@@H](CC(=O)O)C(=O)N[C@@H](CC(=O)O)C(=O)N[C@@H](CC(C)C)C(=O)N[C@H](C(=O)N[C@@H](C)C(=O)N[C@@H](C)C(=O)O)[C@@H](C)O)C(C)C [E335–343] (H-IVADDLTAA-OH)	> 70 µM	> 70 µM	38 µM				
CC(C)C[C@H](NC(=O)[C@@H](NC(=O)[C@H](C)NC(=O)[C@H](CC(N)=O)NC(=O)[C@H](Cc1ccc(O)cc1)NC(=O)[C@H](CS)NC(=O)[C@@H](N)C(C)C)C(C)C)C(=O)N[C@H](C(=O)N[C@@H](Cc1c[nH]cn1)C(=O)O)[C@@H](C)O [E59–67] (H-VCYNAVLTH-OH)	0.211 µM	> 70 µM	55.4 µM				
CC[C@H](C)[C@H](NC(=O)[C@H](CCCCN)NC(=O)[C@@H](NC(=O)[C@H](Cc1c[nH]cn1)NC(=O)[C@@H](NC(=O)[C@H](CC(C)C)NC(=O)[C@@H](NC(=O)[C@H](C)N)C(C)C)[C@@H](C)O)C(C)C)C(=O)N[C@@H](CC(N)=O)C(=O)O [E63–71] (H-AVLTHVKIN-OH)	54.7 µM	> 70 µM	20.7 µM				
CC[C@H](C)[C@H](NC(=O)[C@@H](N)C(C)C)C(=O)N[C@H](C(=O)N[C@@H](C)C(=O)N[C@@H](CC(=O)O)C(=O)N[C@@H](CC(=O)O)C(=O)N[C@@H](CC(C)C)C(=O)N[C@H](C(=O)N[C@@H](C)C(=O)O)[C@@H](C)O)C(C)C [E334–342] (H-VIVADDLTA-OH)	> 70 µM	> 70 µM	19.2 µM				
CC(C)C[C@H](NC(=O)CNC(=O)[C@H](Cc1c[nH]cn1)NC(=O)[C@H](CC(N)=O)NC(=O)[C@H](CCC(=O)O)NC(=O)[C@H](Cc1c[nH]cn1)NC(=O)[C@@H](NC(=O)[C@@H]1CCCN1)[C@@H](C)O)C(=O)N[C@@H](CCCCN)C(=O)N[C@H](C(=O)N[C@@H](CCCNC(=N)N)C(=O)N[C@@H](CCC(N)=O)C(=O)N[C@@H](CCC(=O)O)C(=O)N[C@@H](CCCCN)C(=O)N[C@@H](Cc1c[nH]c2ccccc12)C(=O)O)[C@@H](C)O [M5–19]				> 45 µM	13.2 µM		
CC[C@H](C)[C@H](NC(=O)[C@@H](NC(=O)[C@H](CC(C)C)NC(=O)[C@H](C)NC(=O)[C@@H](NC(=O)[C@@H](NC(=O)[C@H](C)NC(=O)[C@H](Cc1ccccc1)NC(=O)[C@H](Cc1ccccc1)NC(=O)[C@@H]1CCCN1C(=O)[C@H](CC(N)=O)NC(=O)[C@H](CCCNC(=N)N)NC(=O)[C@@H](N)C(C)C)C(C)C)[C@@H](C)O)[C@@H](C)O)C(=O)N[C@@H](C)C(=O)N[C@@H](Cc1ccc(O)cc1)C(=O)O [M37–51]				1.92 µM	0.04 µM		
CC[C@H](C)[C@H](N)C(=O)N1CCC[C@H]1C(=O)N[C@H](C(=O)N[C@H](C(=O)N[C@H](C(=O)N[C@@H](C)C(=O)N[C@@H](CC(=O)O)C(=O)N[C@@H](CC(=O)O)C(=O)N[C@@H](CC(C)C)C(=O)O)C(C)C)[C@@H](C)CC)C(C)C [E332–340] (H-IPVIVADDL-OH)	33 µM	> 70 µM	0.056 µM				
CC(C)C[C@H](NC(=O)[C@@H](NC(=O)[C@H](C)NC(=O)[C@H](CC(N)=O)NC(=O)[C@H](Cc1ccc(O)cc1)NC(=O)[C@H](CS)NC(=O)[C@@H](NC(=O)[C@H](CCCCN)NC(=O)[C@@H](N)CCCNC(=N)N)C(C)C)C(C)C)C(=O)O [E57–65]	> 70 µM	> 70 µM	39.4 µM				
CC[C@H](C)[C@H](NC(=O)[C@@H](NC(=O)[C@@H]1CCCN1C(=O)[C@@H](NC(=O)[C@H](CCCNC(=N)N)NC(=O)[C@@H](N)CS)[C@@H](C)CC)C(C)C)C(=O)N[C@H](C(=O)N[C@@H](C)C(=O)N[C@@H](CC(=O)O)C(=O)O)C(C)C [E330–338] (H-CRIPVIVAD-OH)	0.915 µM	> 70 µM	54.2 µM				
CC[C@H](C)[C@H](NC(=O)[C@@H](NC(=O)[C@@H]1CCCN1)C(C)C)C(=O)N[C@H](C(=O)N[C@@H](C)C(=O)N[C@@H](CC(=O)O)C(=O)N[C@@H](CC(=O)O)C(=O)N[C@@H](CC(C)C)C(=O)N[C@H](C(=O)O)[C@@H](C)O)C(C)C [E333–341] (H-PVIVADDLT-OH)	> 70 µM	> 70 µM	3.72 µM				
CC[C@H](C)[C@H](NC(=O)[C@H](CCCCN)NC(=O)[C@@H](NC(=O)[C@H](Cc1c[nH]cn1)NC(=O)[C@@H](NC(=O)[C@H](CC(C)C)NC(=O)[C@@H](NC(=O)[C@H](C)NC(=O)[C@@H](N)CC(N)=O)C(C)C)[C@@H](C)O)C(C)C)C(=O)O [E62–70] (H-NAVLTHVKI-OH)	1.54 µM	> 70 µM	> 70 µM				
CC[C@H](C)[C@H](NC(=O)[C@H](CCCCN)NC(=O)[C@H](CCC(N)=O)NC(=O)[C@@H](N)CC(C)C)C(=O)N[C@@H](CCC(=O)O)C(=O)N[C@@H](CCCNC(=N)N)C(=O)N[C@@H](Cc1c[nH]c2ccccc12)C(=O)N[C@@H](Cc1ccccc1)C(=O)N[C@H](C(=O)N[C@@H](CCCNC(=N)N)C(=O)N[C@@H](CC(N)=O)C(=O)N1CCC[C@H]1C(=O)N[C@@H](Cc1ccccc1)C(=O)N[C@@H](Cc1ccccc1)C(=O)N[C@@H](C)C(=O)O)C(C)C [M29–43]				1.56 µM	0.593 µM		
CSCC[C@H](NC(=O)[C@H](CCCNC(=N)N)NC(=O)CNC(=O)[C@@H](NC(=O)[C@H](CCSC)NC(=O)[C@H](Cc1c[nH]c2ccccc12)NC(=O)[C@H](CCCCN)NC(=O)[C@H](CCC(=O)O)NC(=O)[C@H](CCC(N)=O)NC(=O)[C@H](CCCNC(=N)N)NC(=O)[C@@H](NC(=O)[C@@H](N)CCCCN)[C@@H](C)O)[C@@H](C)O)C(=O)NCC(=O)N[C@@H](CCC(=O)O)C(=O)N[C@@H](CCCNC(=N)N)C(=O)O [M13–27]				> 45 µM	1.9 µM		
CC[C@H](C)[C@H](NC(=O)[C@@H](NC(=O)[C@H](CC(C)C)NC(=O)[C@H](C)NC(=O)[C@@H](NC(=O)[C@@H](NC(=O)[C@H](C)NC(=O)[C@H](Cc1ccccc1)NC(=O)[C@@H](N)Cc1ccccc1)C(C)C)[C@@H](C)O)[C@@H](C)O)C(=O)N[C@@H](C)C(=O)N[C@@H](Cc1ccc(O)cc1)C(=O)N[C@@H](CC(C)C)C(=O)N[C@H](C(=O)NCC(=O)N[C@@H](CO)C(=O)O)C(C)C [M41–55]				> 45 µM	6.21 µM		
CC[C@H](C)[C@H](NC(=O)[C@@H](NC(=O)[C@H](C)NC(=O)[C@H](C)NC(=O)[C@H](Cc1c[nH]cn1)NC(=O)[C@@H]1CCCN1C(=O)[C@@H]1CCCN1C(=O)[C@H](CCC(=O)O)NC(=O)[C@H](Cc1ccccc1)NC(=O)[C@@H](N)CCC(=O)O)[C@@H](C)O)C(=O)N[C@@H](CCCNC(=N)N)C(=O)N[C@H](C(=O)N[C@@H](CC(C)C)C(=O)N[C@@H](C)C(=O)N[C@@H](CC(C)C)C(=O)O)C(C)C [E233–247]						high affinity	< 1 µM
